Literature values in patent US20110064816A1 (DR. REDDY'S LABORATORIES LTD., priority 2008, published 2011).
Counter-ions that a name gives are not always drawn.

Settings: exposed to heat, moisture, light and low pH conditions

- Degradation from the carboxylic form to a lactone form: susceptible to degradation
SMILES: CC(C)c1c(C(=O)Nc2ccccc2)c(-c2ccccc2)c(-c2ccc(F)cc2)n1CC[C@@H](O)C[C@@H](O)CC(=O)O (relative stereo) [Atorvastatin calcium, [R-(R*,R*)]-2-(4-fluorophenyl)-β,δ-dihydroxy-5-(1-methylethyl)-3-phenyl-4-[(phenylamino)carbonyl]-1H-pyrrole-1-heptanoic acid, calcium salt (2:1) trihydrate]
